From patent US20190290574A1, “TOPICAL SKIN CARE COMPOSITIONS COMPRISING MYRSINE AFRICANA EXTRACTS” (University of Pretoria, priority 2015, published 2019)
Like-named read-outs stand apart in the source and are kept apart here. Values belong to the compound of their own block, whether it stands above or below them.

Columns and labels:
[1] = test system: human skin; assay: Irritancy patch test
Protocol: A sample of the ethanol extract was applied on the inner forearm of twenty (20) volunteers aged between 19-65 years using patch discs for 24 hours to determine irritancy. Visual assessments of the areas were made after 24, 48, 72 and 96 hours. Any reaction was graded as a score of 0, 0.5, 1, 2, 3, and 4, where 0 represented a no response and 4 a fiery redness, papules, oedema or bullae. The forearm of each volunteer included a positive control of sodium lauryl sulphate solution (1 g/100 mL) and a negative control of demineralised water.

[2] = molecular target: T1, porcine pancreatic elastase (Sus scrofa, UniProt P00772); assay: Elastase inhibition assay (release of p-nitroaniline from N-Succinyl-Ala-Ala-Ala-p-nitroanilide); type: biochemical; settings: for inhibition at 5 µg/mL: 5 μg/mL; for inhibition at 10 µg/mL: 10 μg/mL; for inhibition at 25 µg/mL: 25 μg/mL; for inhibition at 50 µg/mL: 50 μg/mL; for IC50: read-out: IC50 (μg/mL) (95% Confidence Interval) (converted)
T1 construct: purchased Sigma E0258; host or cells: porcine pancreas (tissue-derived product)
T1 sequence (P00772 27-266): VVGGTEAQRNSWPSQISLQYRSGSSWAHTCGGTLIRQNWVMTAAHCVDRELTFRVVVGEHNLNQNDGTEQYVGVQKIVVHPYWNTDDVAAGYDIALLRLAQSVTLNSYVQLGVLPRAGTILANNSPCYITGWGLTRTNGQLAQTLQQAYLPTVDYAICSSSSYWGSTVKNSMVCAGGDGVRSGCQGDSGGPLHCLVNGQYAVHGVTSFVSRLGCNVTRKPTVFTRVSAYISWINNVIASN
Protocol: The pancreatic elastase inhibitory activity was determined in vitro by the spectrophotometric determination of the release of p-nitroaniline from a synthetic substrate N-Succinyl-Ala-Ala-Ala-p-nitroanilide.
A sample stock solution of 500 μg/mL and 1120 μg/mL was prepared from M. africana leaf extract and compound respectively. Briefly, 2.5 mg of extract and 2.24 mg of the compound was weighed and dissolved in 100 μL of methanol. The volume was then made up to 5 mL for the extract and to 2 mL for the compound with 100mM Tris-HCl buffer, pH 8.0. Subsequent dilutions for the assay were made as required.
An elastase inhibition assay was carried out largely as per the method of Bieth et al. (1974) with modifications. In brief, a pre-incubation mixture contained 100 mM of either Tris-HCl buffer (pH 8.0), vehicle buffer, positive control, or test sample of various concentrations together with 4.942 mU of elastase enzyme. The reagents were mixed and the mixture was pre-incubated at 37° C. for 15 min. Following pre-incubation, substrate (N-Succinyl-Ala-Ala-Ala-p-nitroanilide) was added to a final concentration of 0.338 mM and the solution was mixed and incubated at 37° C. for 30 min. The absorbance was measured at 405 nm in a micro-plate reader (Versamax, Molecular devices, USA). A control reaction was carried out without the test sample.
The % inhibition of the enzyme was calculated as follows:
IC50 was calculated using log-probit analysis.

[3] = Compound MA-NR-01 run, read-out: % Inhibition (Mean ± SEM)
[4] = MA ethanolic extract run, read-out: % Inhibition (Mean ± SEM)

Compound: CCCCCCCCCCCCOS(=O)(=O)[O-].[Na+] [Positive Control Right, sodium lauryl sulphate]
Number of subjects with reactions after 48 hours ([1]; 20 volunteers, 48 hours): 12
Irritancy ([1]; patch test on human subjects): Irritant
Average value ([1]; patch test, 20 volunteers, results after 96 hours): 0.54
Average score ([1]; patch test, score scale 0-4, results after 96 hours): 1.03
Irritancy potential % (TP-NC)/(PC-NC) ([1]; relative to positive control sodium lauryl sulphate and negative control water): 100%

inhibition at 2.5 µg/mL ([2]; 2.5 μg/mL, Compound MA-NR-01 run, read-out: % Inhibition (Mean ± SEM)): 10.6 ± 0.32%
inhibition at 5 µg/mL [2, 3]: 21.1 ± 0.53%
inhibition at 5 µg/mL [2, 4]: 13.2 ± 2.25%
inhibition at 10 µg/mL [2, 3]: 40.1 ± 1.22%
inhibition at 10 µg/mL [2, 4]: 24.1 ± 4.5%
inhibition at 25 µg/mL [2, 3]: 58.85 ± 0.17%
inhibition at 25 µg/mL [2, 4]: 41.4 ± 0.92%
inhibition at 50 µg/mL [2, 3]: 62.1 ± 1.18%
inhibition at 50 µg/mL [2, 4]: 53.2 ± 0.56%
IC50 ([2]; run of Compound MA-NR-01 (right half of Table 1)): 45.5 µM
IC50 ([2]; run of MA ethanolic extract (left half of Table 1)): 88.9 µM
Compound: C[C@H]1[C@H](C)CC[C@]2(C(=O)O)CC[C@]3(C)C(=CC[C@@H]4[C@@]5(C)CC[C@H](O)C(C)(C)[C@@H]5CC[C@]43C)[C@H]12 [Ursolic Acid, ursolic acid]

% Inhibition (Mean ± SEM) ([2]; 7.8125 μg/mL, Compound MA-NR-01 run): 11.79 ± 4.35%
% Inhibition (Mean ± SEM) ([2]; 15.625 μg/mL, Compound MA-NR-01 run): 4.79 ± 1.66%
% Inhibition (Mean ± SEM) ([2]; 31.25 μg/mL, Compound MA-NR-01 run): 6.76 ± 4.57%
% Inhibition (Mean ± SEM) ([2]; 62.5 μg/mL, Compound MA-NR-01 run): 5.73 ± 1.04%
% Inhibition (Mean ± SEM) ([2]; 125 μg/mL, Compound MA-NR-01 run): 13.00±1.04%
% Inhibition (Mean ± SEM) ([2]; 250 μg/mL, Compound MA-NR-01 run): 25.75 ± 1.46%
% Inhibition (Mean ± SEM) ([2]; 500 μg/mL, Compound MA-NR-01 run): 31.02 ± 1.22%
Compound: Myrsinoside B [MA-NR-01]
